Experimental data from patent US7727950B2, “Methods and reagents for assaying protein kinase activity” (The University of Dundee, priority 2002, dated 2010).
Values belong to the substance of their own block, whether it stands above or below them. Square brackets hold non-standard residues; d marks the D form. Ends that are not written are not given here. pS = N[C@@H](COP(=O)(O)O)C(=O)O

Columns and labels:
[1] = tested on: peptide LpSFAEPGC conjugated to bovine serum albumin; test: Immunoblot of phospho-specific antibody with peptide competition (FIG. 1); format: binding; settings: competition studies
Procedure: Aliquots (10 ng or 100 ng) of the peptide LpSFAEPGC (SEQ ID NO: 17) conjugated to bovine serum albumin were spotted on to a nitrocellulose membrane and immunoblotted with the phospho-specific antibody raised against the phospho-peptide immunogen in the presence or absence of the peptides shown on the right. The prefix “p” before S denotes the serine-phosphorylated form of the peptide.
Antibodies that recognise the common seven residue phosphorylated motif (LpSFAEPG) (SEQ ID NO:7) contained within each of the three generic peptide substrates described under results, were raised against the peptide LpSFAEPGC (SEQ ID NO:17) (where pS represents phosphoserine). The C-terminal cysteine residue was added to enable coupling to keyhole limpet haemocyanin. The peptide-protein conjugate was injected into sheep at Diagnostic Scotland (Carluke, U.K.) and the anti-sera purified on protein G-Sepharose (Amersham Pharmacia Biotech) by Dr J. Leitch in this Unit. Antibodies were used at a concentration of 2 μg/ml for immunoblotting and 10-20 μg/ml for detection of phosphorylated peptides in the modified ELISA format. Rabbit anti-sheep antibodies conjugated to peroxidase were obtained from Pierce (Tattenhall, Cheshire, UK) and used at 1/10,000 dilution. […]

[2] = biological target: T1, CHK1 (Homo sapiens, UniProt O14757); test: Kinetic parameters for peptide phosphorylation, radioactive filter-binding assay; format: biochemical; settings: Standard Substrate = KKKVSRSGLYRSPSMPENLNRPR
T1 construct: made in house; host or cells: Sf21 insect cells
T1 sequence (O14757 1-476): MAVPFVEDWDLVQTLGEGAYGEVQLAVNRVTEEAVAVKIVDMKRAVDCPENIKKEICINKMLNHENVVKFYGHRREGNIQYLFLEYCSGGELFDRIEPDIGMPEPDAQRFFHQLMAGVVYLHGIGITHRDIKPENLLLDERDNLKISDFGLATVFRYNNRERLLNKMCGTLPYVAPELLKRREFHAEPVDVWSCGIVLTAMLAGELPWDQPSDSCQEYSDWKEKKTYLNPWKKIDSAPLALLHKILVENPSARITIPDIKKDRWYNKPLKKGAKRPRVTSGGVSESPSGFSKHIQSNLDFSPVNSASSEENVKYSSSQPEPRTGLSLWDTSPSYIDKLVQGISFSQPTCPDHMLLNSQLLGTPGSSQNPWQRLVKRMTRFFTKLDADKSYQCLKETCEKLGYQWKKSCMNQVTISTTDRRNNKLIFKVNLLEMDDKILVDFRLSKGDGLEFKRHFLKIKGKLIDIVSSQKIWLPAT
Excerpt: (§1) Apart from the AMP-activated protein kinase (AMPK, a gift from Drs S. Hawley and D. G. Hardie), cGMP-dependent protein kinase (PKG, a generous gift from Drs Susan Lohmann and Ulrich Walter, University of Wurzburg, Germany) and the catalytic subunit of cyclic AMP-dependent protein kinase (PKA, a gift from Dr C. Smythe), which were isolated from rat liver, bovine lung and bovine heart, respectively, all other protein kinases were expressed as either GST-fusion or His-tagged proteins (by a person, a person, Dr A. Paterson or a person, in this Division). The expressed proteins all corresponded to the human sequences apart from the rat Rho-dependent protein kinase (ROCK-II) and rat mitogen-activated protein kinase (MAPK) activated kinase-1a (MAPKAP-K1a, also called RSK). GST-fusion proteins were purified on GSH-agarose (Amersham Pharmacia Biotech, Amersham, UK) and His-tagged proteins on Ni-NTA agarose (Qiagen) essentially according to the manufacturer's instructions. All the protein kinases used in this study are available from Upstate Biotechnology Inc. (Lake Placid, N.Y., USA), apart from the α-isoform of calmodulin-dependent protein kinase II (CaMKII), MAPKAP-K3 and PKG. […]
(§2) All protein kinase assays were linear with respect to time. […] All papers were subsequently washed a further three times in phosphoric acid, once in acetone, then dried and counted for radioactivity. […] The plates were then washed six times (five min per wash) in PBS, 0.1% Tween 20 and binding of the phospho-specific antibody detected by incubating the plates with peroxidase-conjugated anti-sheep antibodies (Pierce). […] Signals were quantitated on LAS-1000IR software (FujiFilm). […]

[3] = biological target: T2, CHK2 (Homo sapiens, UniProt O96017); test: as above; format: biochemical; settings: Standard Substrate = KKKVSRSGLYRSPSMPENLNRPR
T2 construct: an additional His-tag at the extreme C-terminus, to aid purification of the full-length product; GST; His-tag (C); made in house; host or cells: E. coli
T2 sequence (O96017 whole entry): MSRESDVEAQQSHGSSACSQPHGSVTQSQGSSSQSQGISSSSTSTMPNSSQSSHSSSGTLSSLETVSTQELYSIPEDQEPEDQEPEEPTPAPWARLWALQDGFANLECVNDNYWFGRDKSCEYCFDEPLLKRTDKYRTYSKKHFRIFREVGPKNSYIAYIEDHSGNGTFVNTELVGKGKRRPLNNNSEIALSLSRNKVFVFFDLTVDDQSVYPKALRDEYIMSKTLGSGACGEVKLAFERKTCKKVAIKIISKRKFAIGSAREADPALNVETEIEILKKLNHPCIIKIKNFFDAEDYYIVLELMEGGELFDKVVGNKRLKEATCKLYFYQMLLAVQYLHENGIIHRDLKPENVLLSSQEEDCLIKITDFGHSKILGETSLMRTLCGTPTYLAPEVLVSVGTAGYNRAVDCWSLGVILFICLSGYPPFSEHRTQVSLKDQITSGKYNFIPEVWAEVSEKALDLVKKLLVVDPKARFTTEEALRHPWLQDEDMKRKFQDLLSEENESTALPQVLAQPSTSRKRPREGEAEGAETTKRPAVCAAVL
Excerpt: as §1, with “RSK).” for “RSK). GST-fusion proteins were purified on GSH-agarose (Amersham Pharmacia Biotech, Amersham, UK) and His-tagged proteins on Ni-NTA agarose (Qiagen) essentially according to the manufacturer's instructions. All the protein kinases used in this study are available from Upstate Biotechnology Inc. (Lake Placid, N.Y., USA), apart from the α-isoform of calmodulin-dependent protein kinase II (CaMKII), MAPKAP-K3 and PKG.”
as §2

[4] = biological target: T3, PKCα (Homo sapiens, UniProt P17252); test: as above; format: biochemical; settings: Standard Substrate = histone H1
T3 construct: purchased Calbiochem Novachem Corp; host or cells: Sf21 insect cells
Excerpt: as §1, §2

[5] = biological target: T4, ROCKII (Rattus norvegicus, UniProt Q62868); test: as above; format: biochemical; settings: Standard Substrate = KEAKEKRQEQIAKRRRLSSLRASTSKSGGSQK
T4 construct: rat ROCKII[1-543]; made in house; host or cells: Sf21 insect cells
T4 sequence (Q62868 1-543): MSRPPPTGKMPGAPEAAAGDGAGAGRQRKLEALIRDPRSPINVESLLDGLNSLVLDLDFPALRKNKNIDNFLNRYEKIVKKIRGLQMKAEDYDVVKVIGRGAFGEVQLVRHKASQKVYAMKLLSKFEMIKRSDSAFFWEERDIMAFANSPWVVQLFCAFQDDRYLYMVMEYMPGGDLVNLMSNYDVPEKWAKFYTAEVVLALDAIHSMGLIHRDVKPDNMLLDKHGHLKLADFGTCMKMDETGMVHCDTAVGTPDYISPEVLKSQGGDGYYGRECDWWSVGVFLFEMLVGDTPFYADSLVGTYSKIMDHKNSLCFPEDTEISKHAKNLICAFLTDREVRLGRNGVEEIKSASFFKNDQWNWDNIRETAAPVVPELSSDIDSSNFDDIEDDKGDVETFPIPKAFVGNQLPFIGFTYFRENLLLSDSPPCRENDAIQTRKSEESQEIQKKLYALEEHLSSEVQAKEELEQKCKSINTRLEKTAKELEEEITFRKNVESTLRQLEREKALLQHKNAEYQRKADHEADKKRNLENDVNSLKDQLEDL
Excerpt: as §1, §2

Substance: LpSFAEPG (L[pS]FAEPG) [seven residue phospho-peptide antigen, pS is phosphoserine]
neutralisation of the phosphopeptide antibody by pre-incubation with peptide [1]: neutralised

Km [2]: 5 µM
Km [3]: > 300 µM
Substance: RARTLSFAEPG

Km [4]: > 500 µM
Km [5]: > 100 µM
Substance: RRRLSFAEPG
